# Test system: HBV (encapsidated HBV DNA, HepG2.2.15 cells)
# Experiment: HBV replication inhibition assay, BDNA assay in HepG2.2.15 cells
# Type: cell-based
# Conditions: Activity in BDNA-assay
# Method in brief: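 HepG2.2.15 cells (stably integrated HBV, 40,000/well) treated with serially diluted compound in 0.5% DMSO for 6 days, medium and compound refreshed at day 3. DNase-treated supernatant lysed with proteinase K; encapsidated HBV DNA quantified by bDNA, percent inhibition versus DMSO controls, EC50 by nonlinear fit.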
row,Structure (SMILES),EC50
1,"CCC(O)C1CN(C)C(=O)c2c3c(nn2C1)CC(C)N(C(=O)Nc1ccc(F)c(C#N)c1)C3 [Compound 108_D1, (3R,8S*)—N-(3-cyano-4-fluorophenyl)-8-((R)-1-hydroxypropyl)-3,10-dimethyl-11-oxo-1,3,4,7,8,9,10,11-octahydro-2H-pyrido[4′,3′:3,4]pyrazolo[1,5-a][1,4]diazepine-2-carboxamide]",1 to 100 nM
2,"CCC(O)C1CN(C)C(=O)c2c3c(nn2C1)CC(C)N(C(=O)Nc1ccc(F)c(C#N)c1)C3 [Compound 108_D2, (3R,8R*)—N-(3-cyano-4-fluorophenyl)-8-((R)-1-hydroxypropyl)-3,10-dimethyl-11-oxo-1,3,4,7,8,9,10,11-octahydro-2H-pyrido[4′,3′:3,4]pyrazolo[1,5-a][1,4]diazepine-2-carboxamide]",100 to 500 nM
3,"CCC(O)C1CN(C)C(=O)c2c3c(nn2C1)CC(C)N(C(=O)Nc1ccc(F)c(Br)c1)C3 [Compound 109_D2, (3R,8R*)—N-(3-bromo-4-fluorophenyl)-8-((R)-1-hydroxypropyl)-3,10-dimethyl-11-oxo-1,3,4,7,8,9,10,11-octahydro-2H-pyrido[4′,3′:3,4]pyrazolo[1,5-a][1,4]diazepine-2-carboxamide]",1 to 100 nM
4,"CN1CC(C(O)CCF)Cn2nc3c(c2C1=O)CN(C(=O)Nc1ccc(F)c(Cl)c1)CC3 (stereo not shown) [Compound 115, N-(3-chloro-4-fluoro-phenyl)-8-(3-fluoro-1-hydroxy-propyl)-10-methyl-1-oxo-1,3,4,7,8,9-hexahydropyrido[2,3]pyrazolo[2,4-b][1,4]diazepine-2-carboxamide]",1 to 100 nM
5,"C=CC(O)C1CN(C)C(=O)c2c3c(nn2C1)CC(C)N(C(=O)Nc1ccc(F)c(C(F)(F)F)c1)C3 [Compound 122_D1, (3R,8S*)—N-(4-fluoro-3-(trifluoromethyl)phenyl)-8-((R*)-1-hydroxyallyl)-3,10-dimethyl-11-oxo-1,3,4,7,8,9,10,11-octahydro-2H-pyrido[4′,3′:3,4]pyrazolo[1,5-a][1,4]diazepine-2-carboxamide]",1 to 100 nM
6,"C=CC(O)C1CN(C)C(=O)c2c3c(nn2C1)CC(C)N(C(=O)Nc1ccc(F)c(C(F)(F)F)c1)C3 [Compound 122_D2, (3R,8S*)—N-(4-fluoro-3-(trifluoromethyl)phenyl)-8-((S*)-1-hydroxyallyl)-3,10-dimethyl-11-oxo-1,3,4,7,8,9,10,11-octahydro-2H-pyrido[4′,3′:3,4]pyrazolo[1,5-a][1,4]diazepine-2-carboxamide]",100 to 500 nM
7,"C=CC(O)C1CN(C)C(=O)c2c3c(nn2C1)CC(C)N(C(=O)Nc1ccc(F)c(Br)c1)C3 [Compound 124_D2, (3R,8S*)—N-(3-bromo-4-fluorophenyl)-8-((S*)-1-hydroxyallyl)-3,10-dimethyl-11-oxo-1,3,4,7,8,9,10,11-octahydro-2H-pyrido[4′,3′:3,4]pyrazolo[1,5-a][1,4]diazepine-2-carboxamide]",1 to 100 nM

# Same assay, conditions: Hepatitis B virus, HepG2.2.15, Activity in BDNA-assay
row,Structure (SMILES),EC50
1,"CCC(O)C1CN(C)C(=O)c2c3c(nn2C1)CC(C)N(C(=O)Nc1ccc(F)c(Br)c1)C3 [Compound 109_D1, (3R,8 S*)—N-(3-bromo-4-fluorophenyl)-8-((R)-1-hydroxypropyl)-3,10-dimethyl-11-oxo-1,3,4,7,8,9,10,11-octahydro-2H-pyrido[4′,3′:3,4]pyrazolo[1,5-a][1,4]diazepine-2-carboxamide]",1 to 100 nM
2,"CN1CCCCn2nc3c(c2C1=O)CN(C(=O)Nc1ccc(F)c(Cl)c1)CC3 [Compound 110, N-(3-chloro-4-fluorophenyl)-11-methyl-12-oxo-3,4,7,8,9,10,11,12-octahydropyrido[4′,3′:3,4]pyrazolo[1,5-a][1,4]diazocine-2 (1H)-carboxamide]",1 to 100 nM
3,"CN1C/C=C\Cn2nc3c(c2C1=O)CN(C(=O)Nc1ccc(F)c(Cl)c1)CC3 [Compound 111, (Z)—N-(3-chloro-4-fluorophenyl)-11-methyl-12-oxo-3,4,7,10,11,12-hexahydropyrido[4′,3′:3,4]pyrazolo[1,5-a][1,4]diazocine-2 (1H)-carboxamide]",1 to 100 nM
4,"CN1CCC(C(=O)O)n2nc3c(c2C1=O)CN(C(=O)Nc1ccc(F)c(Cl)c1)CC3 (stereo not shown) [Compound 113, 2-((3-chloro-4-fluorophenyl)carbamoyl)-10-methyl-11-oxo-1,3,4,7,8,9,10,11-octahydro-2H-pyrido[4′,3′:3,4]pyrazolo[1,5-a][1,4]diazepine-7-carboxylic acid]",> 1000 nM
5,"CN1CCC(CO)n2nc3c(c2C1=O)CN(C(=O)Nc1ccc(F)c(Cl)c1)CC3 (stereo not shown) [Compound 114, N-(3-chloro-4-fluorophenyl)-7-(hydroxymethyl)-10-methyl-11-oxo-1,3,4,7,8,9,10,11-octahydro-2H-pyrido[4′,3′:3,4]pyrazolo[1,5-a][1,4]diazepine-2-carboxamide]",1 to 100 nM
6,"CN1CC(C(O)CC(F)F)Cn2nc3c(c2C1=O)CN(C(=O)Nc1ccc(F)c(Cl)c1)CC3 (stereo not shown) [Compound 116, N-(3-chloro-4-fluoro-phenyl)-8-(3,3-difluoro-1-hydroxy-propyl)-10-methyl-1-oxo-1,3,4,7,8,9-hexahydropyrido[2,3]pyrazolo[2,4-b][1,4]diazepine-2-carboxamide]",1 to 100 nM
7,"CC(=O)NCC1CN(C)C(=O)c2c3c(nn2C1)CCN(C(=O)Nc1ccc(F)c(Cl)c1)C3 (stereo not shown) [Compound 117, 8-(acetamidomethyl)-N-(3-chloro-4-fluorophenyl)-10-methyl-11-oxo-1,3,4,7,8,9,10,11-octahydro-2H-pyrido[4′,3′:3,4]pyrazolo[1,5-a][1,4]diazepine-2-carboxamide]",1 to 100 nM
8,"CN1CC(CNCC(F)F)Cn2nc3c(c2C1=O)CN(C(=O)Nc1ccc(F)c(C#N)c1)CC3 (stereo not shown) [Compound 118, N-(3-cyano-4-fluorophenyl)-8-(((2,2-difluoroethyl)amino)methyl)-10-methyl-11-oxo-1,3,4,7,8,9,10,11-octahydro-2H-pyrido[4′,3′:3,4]pyrazolo[1,5-a][1,4]diazepine-2-carboxamide]",1 to 100 nM
9,"CN1CC(CNCC(F)F)Cn2nc3c(c2C1=O)CN(C(=O)Nc1ccc(F)c(C(F)(F)F)c1)CC3 (stereo not shown) [Compound 119, 8-(((2,2-difluoroethyl)amino)methyl)-N-(4-fluoro-3-(trifluoromethyl)phenyl)-10-methyl-11-oxo-1,3,4,7,8,9,10,11-octahydro-2H-pyrido[4′,3′:3,4]pyrazolo[1,5-a][1,4] diazepine-2-carboxamide]",1 to 100 nM
10,"CN1CC(CNCC(F)(F)F)Cn2nc3c(c2C1=O)CN(C(=O)Nc1ccc(F)c(C#N)c1)CC3 (stereo not shown) [Compound 120, N-(3-cyano-4-fluorophenyl)-10-methyl-11-oxo-8-(((2,2,2-trifluoroethyl)amino)methyl)-1,3,4,7,8,9,10,11-octahydro-2H-pyrido[4′,3′:3,4]pyrazolo [1,5-a][1,4]diazepine-2-carboxamide]",1 to 100 nM
11,"CN1CC(CNCC(F)(F)F)Cn2nc3c(c2C1=O)CN(C(=O)Nc1ccc(F)c(C(F)(F)F)c1)CC3 (stereo not shown) [Compound 121, N-(4-fluoro-3-(trifluoromethyl)phenyl)-10-methyl-11-oxo-8-(((2,2,2-trifluoroethyl)amino)methyl)-1,3,4,7,8,9,10,11-octahydro-2H-pyrido[4′,3′:3,4]pyrazolo[1,5-a][1,4]diazepine-2-carboxamide]",1 to 100 nM
12,"C=CC(O)C1CN(C)C(=O)c2c3c(nn2C1)CC(C)N(C(=O)Nc1ccc(F)c(Br)c1)C3 [Compound 124_D1, (3R,8S*)—N-(3-bromo-4-fluorophenyl)-8-((R*)-1-hydroxyallyl)-3,10-dimethyl-11-oxo-1,3,4,7,8,9,10,11-octahydro-2H-pyrido[4′,3′:3,4]pyrazolo[1,5-a][1,4]diazepine-2-carboxamide]",1 to 100 nM
13,"CN1CC2(CC(O)C2)Cn2nc3c(c2C1=O)CN(C(=O)Nc1ccc(F)c(Cl)c1)CC3 (stereo not shown) [Compound 132, N-(3-chloro-4-fluorophenyl)-3-hydroxy-10′-methyl-11′-oxo-1′,3′,4′,9′,10′,11′-hexahydro-2′H,7′H-spiro[cyclobutane-1,8′-pyrido[4′,3′:3,4]pyrazolo [1,5-a][1,4]diazepine]-2′-carboxamide]",1 to 100 nM
14,"C[C@@H]1Cc2nn3c(c2CN1C(=O)Nc1ccc(F)c(C#N)c1)C(=O)N(C)C[C@@H](COCC(F)F)C3 [Compound 134_D1, (3R,8R)—N-(3-Cyano-4-fluorophenyl)-8-((2,2-difluoroethoxy)methyl)-3,10-dimethyl-11-oxo-1,3,4,7,8,9,10,11-octahydro-2H-pyrido[4′,3′:3,4]pyrazolo[1,5-a][1,4]diazepine-2-carboxamide]",1 to 100 nM
15,"C[C@@H]1Cc2nn3c(c2CN1C(=O)Nc1ccc(F)c(C(F)(F)F)c1)C(=O)N(C)C[C@@H](COCC(F)F)C3 [Compound 135_D1, (3R,8R)-8-((2,2-difluoroethoxy)methyl)-N-(4-fluoro-3-(trifluoromethyl)phenyl)-3,10-dimethyl-11-oxo-1,3,4,7,8,9,10,11-octahydro-2H-pyrido[4′,3′:3,4]pyrazolo[1,5-a][1,4]diazepine-2-carboxamide]",1 to 100 nM
16,"C[C@@H]1Cc2nn3c(c2CN1C(=O)Nc1ccc(F)c(C(F)(F)F)c1)C(=O)N(C)C[C@H](COCC(F)F)C3 [Compound 135_D2, (3R,8S)-8-((2,2-difluoroethoxy)methyl)-N-(4-fluoro-3-(trifluoromethyl)phenyl)-3,10-dimethyl-11-oxo-1,3,4,7,8,9,10,11-octahydro-2H-pyrido[4′,3′:3,4]pyrazolo[1,5-a][1,4]diazepine-2-carboxamide]",1 to 100 nM
17,"C[C@@H]1Cc2nn3c(c2CN1C(=O)Nc1ccc(F)c(C#N)c1)C(=O)N(C)CC(F)(F)C3 [Compound 136, (R)—N-(3-cyano-4-fluorophenyl)-8,8-difluoro-3,10-dimethyl-11-oxo-1,3,4,7,8,9,10,11-octahydro-2H-pyrido[4′,3′:3,4]pyrazolo[1,5-a][1,4]diazepine-2-carboxamide]",1 to 100 nM
18,"C[C@@H]1Cc2nn3c(c2CN1C(=O)Nc1ccc(F)c(C#N)c1)C(=O)N(C)CC(C)(C)C3 [Compound 139, (R)-N-(3-cyano-4-fluorophenyl)-3,8,8,10-tetramethyl-11-oxo-1,3,4,7,8,9,10,11-octahydro-2H-pyrido[4′,3′:3,4]pyrazolo[1,5-a][1,4]diazepine-2-carboxamide]",1 to 100 nM

# Reference: US10975077B2 (Novira Therapeutics, Inc., priority 2016, dated 2021)
